Legend:
Settings in all cases: exposure time: 72 h
[1] = test system: E21 (patient-derived glioblastoma stem cells of mesenchymal subtype); test: phenotypic distance (Euclidean, principal components) from DMSO controls (arbitrary units); higher = stronger morphological change
[2] = test system: E34 (patient-derived glioblastoma stem cells of proneural subtype); test: as above
[3] = test system: E13 (patient-derived glioblastoma stem cells of classical subtype); test: as above
[4] = test system: E31 (patient-derived glioblastoma stem cells of proneural subtype); test: as above
[5] = test system: E57 (patient-derived glioblastoma stem cells of mesenchymal subtype); test: as above
[6] = test system: FT3469 (normal neural stem cell line); test: as above
[7] = test system: E28 (patient-derived glioblastoma stem cells of classical subtype); test: as above
[8] = test system: E21; test: surviving fraction (nuclei count normalised to DMSO); higher = more cells surviving (less toxic)
[9] = test system: E34; test: as above
[10] = test system: E13; test: as above
[11] = test system: E31; test: as above
[12] = test system: E57; test: as above
[13] = test system: FT3469; test: as above
[14] = test system: E28; test: as above
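Throughout, for phenotypic distance (Euclidean, principal components) from DMSO controls: cell Painting imaging in 384-well plates, CellProfiler features reduced to at least 20 principal components, Euclidean distance versus same-plate DMSO vehicle wells (0.1% v/v), median over six images per well.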
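Throughout, for surviving fraction (nuclei count normalised to DMSO): nuclei counted by high-content imaging of Hoechst-stained cells in laminin-coated 384-well plates, relative to 0.1% DMSO vehicle wells, with staurosporine as cell-death control.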

With `NC(=O)c1cccc2cn(-c3ccc([C@@H]4CCCNC4)cc3)nc12` [Niraparib] the phenotypic distance ([1]; 4.1 nM) was 1, the phenotypic distance ([1]; 12.3 nM) was 1.03 and the phenotypic distance ([1]; 37 nM) was 0.998. The phenotypic distance ([1]; 111.1 nM) was 0.66, the phenotypic distance ([1]; 333.3 nM) was 0.751 and the phenotypic distance ([1]; 1000 nM) was 3.25. For the same compound, the phenotypic distance ([1]; 3000 nM) was 0.988, the phenotypic distance ([2]; 4.1 nM) was 3.06 and the phenotypic distance ([2]; 12.3 nM) was 0.78. The phenotypic distance ([2]; 37 nM) was 0.587, the phenotypic distance ([2]; 111.1 nM) was 0.691 and the phenotypic distance ([2]; 333.3 nM) was 0.654. For the same compound, the phenotypic distance ([2]; 1000 nM) was 0.893, the phenotypic distance ([2]; 3000 nM) was 1.77 and the phenotypic distance ([3]; 4.1 nM) was 6.4. It also gave a phenotypic distance ([3]; 12.3 nM) of 0.843, a phenotypic distance ([3]; 37 nM) of 0.647 and a phenotypic distance ([3]; 111.1 nM) of 1.65. The phenotypic distance ([3]; 333.3 nM) was 1.62, the phenotypic distance ([3]; 1000 nM) was 0.782 and the phenotypic distance ([3]; 3000 nM) was 1.33. For the same compound, the phenotypic distance ([4]; 4.1 nM) was 0.907, the phenotypic distance ([4]; 12.3 nM) was 1.29 and the phenotypic distance ([4]; 37 nM) was 1.19. The phenotypic distance ([4]; 111.1 nM) was 0.995, the phenotypic distance ([4]; 333.3 nM) was 0.875 and the phenotypic distance ([4]; 1000 nM) was 0.834. It also gave a phenotypic distance ([4]; 3000 nM) of 2.29, a phenotypic distance ([5]; 4.1 nM) of 0.553 and a phenotypic distance ([5]; 12.3 nM) of 0.936. For the same compound, the phenotypic distance ([5]; 37 nM) was 0.684, the phenotypic distance ([5]; 111.1 nM) was 0.604 and the phenotypic distance ([5]; 333.3 nM) was 0.582. The phenotypic distance ([5]; 1000 nM) was 0.667, the phenotypic distance ([5]; 3000 nM) was 1.51 and the phenotypic distance ([6]; 4.1 nM) was 1.72. It also gave a phenotypic distance ([6]; 12.3 nM) of 0.905, a phenotypic distance ([6]; 37 nM) of 1.21 and a phenotypic distance ([6]; 111.1 nM) of 0.978. The phenotypic distance ([6]; 333.3 nM) was 0.746, the phenotypic distance ([6]; 1000 nM) was 1.12 and the phenotypic distance ([6]; 3000 nM) was 2.12. The phenotypic distance ([7]; 4.1 nM) was 0.932, the phenotypic distance ([7]; 12.3 nM) was 0.689 and the phenotypic distance ([7]; 37 nM) was 1.02. For the same compound, the phenotypic distance ([7]; 111.1 nM) was 0.861, the phenotypic distance ([7]; 333.3 nM) was 0.791 and the phenotypic distance ([7]; 1000 nM) was 1.23. The phenotypic distance ([7]; 3000 nM) was 2.78, the surviving fraction ([8]; 4.1 nM) was 0.89 and the surviving fraction ([8]; 12.3 nM) was 0.869. For the same compound, the surviving fraction ([8]; 37 nM) was 0.882, the surviving fraction ([8]; 111.1 nM) was 0.923 and the surviving fraction ([8]; 333.3 nM) was 0.916. The surviving fraction ([8]; 1000 nM) was 0.927, the surviving fraction ([8]; 3000 nM) was 0.942 and the surviving fraction ([9]; 4.1 nM) was 0.963. It also gave a surviving fraction ([9]; 12.3 nM) of 0.904, a surviving fraction ([9]; 37 nM) of 0.902 and a surviving fraction ([9]; 111.1 nM) of 0.971. It also gave a surviving fraction ([9]; 333.3 nM) of 0.861, a surviving fraction ([9]; 1000 nM) of 0.924 and a surviving fraction ([9]; 3000 nM) of 0.737. It also gave a surviving fraction ([10]; 4.1 nM) of 0.923, a surviving fraction ([10]; 12.3 nM) of 0.914 and a surviving fraction ([10]; 37 nM) of 0.942. The surviving fraction ([10]; 111.1 nM) was 0.857, the surviving fraction ([10]; 333.3 nM) was 0.967 and the surviving fraction ([10]; 1000 nM) was 0.966. The surviving fraction ([10]; 3000 nM) was 0.811, the surviving fraction ([11]; 4.1 nM) was 1.04 and the surviving fraction ([11]; 12.3 nM) was 0.782. For the same compound, the surviving fraction ([11]; 37 nM) was 1, the surviving fraction ([11]; 111.1 nM) was 0.896 and the surviving fraction ([11]; 333.3 nM) was 0.939. It also gave a surviving fraction ([11]; 1000 nM) of 0.886, a surviving fraction ([11]; 3000 nM) of 0.64 and a surviving fraction ([12]; 4.1 nM) of 0.996. It also gave a surviving fraction ([12]; 12.3 nM) of 0.917, a surviving fraction ([12]; 37 nM) of 0.93 and a surviving fraction ([12]; 111.1 nM) of 0.833. The surviving fraction ([12]; 333.3 nM) was 0.951, the surviving fraction ([12]; 1000 nM) was 0.921 and the surviving fraction ([12]; 3000 nM) was 0.826. For the same compound, the surviving fraction ([13]; 4.1 nM) was 0.84, the surviving fraction ([13]; 12.3 nM) was 0.901 and the surviving fraction ([13]; 37 nM) was 0.853. The surviving fraction ([13]; 111.1 nM) was 0.918, the surviving fraction ([13]; 333.3 nM) was 0.931 and the surviving fraction ([13]; 1000 nM) was 0.916. For the same compound, the surviving fraction ([13]; 3000 nM) was 0.743, the surviving fraction ([14]; 4.1 nM) was 0.905 and the surviving fraction ([14]; 12.3 nM) was 0.975. It also gave a surviving fraction ([14]; 37 nM) of 0.875, a surviving fraction ([14]; 111.1 nM) of 0.868 and a surviving fraction ([14]; 333.3 nM) of 0.922. It also gave a surviving fraction ([14]; 1000 nM) of 0.84 and a surviving fraction ([14]; 3000 nM) of 0.603.

From the supplement of paper PMC13207355
